Experimental data: PubChem BioAssay AID2060900 (Molecular Pharmacology Branch, DTP, NCI, 2025)
Values belong to the compound of their own block, whether it stands above or below them.

Test system: 521955-158-R2-J5-PDC complex spheroids, viability
Assay: Anticancer human tumor 521955-158-R2-J5-PDC patient-derived pancreatic carcinoma cell line growth inhibition [RAS]
Details: for IC50: curve of first compound; for viability, T/C: stronger effect = lower value
How it was run: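 Agents were tested in combination matrices in half-log decrements from a top concentration at or near clinical Cmax (10 microM if undetermined). Targets were multi-cell spheroids of tumour lines plus HUVEC and MSC stromal cells.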
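Note: compound exposure lasted seven days before the viability read.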
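Throughout, for viability, T/C: spheroids also contain HUVEC endothelial cells and mesenchymal stem cells as stroma.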

IC50 (second compound 0.000949 µM): 2.25 nM
IC50 (second compound 0.003 µM): 2.41 nM
IC50 (second compound 0.00949 µM): 2.52 nM
IC50 (second compound 0.03 µM): 2.53 nM
IC50 (second compound 0.0949 µM): 2.64 nM
IC50 (second compound 0.3 µM): 1.7 nM
SMILES: CCc1c2c(nc3ccc(O)cc13)-c1cc3c(c(=O)n1C2)COC(=O)[C@]3(O)CC + CCn1c(-c2cccnc2C(C)OC)c2c3cc(ccc31)N1CCOC(CC(NC(=O)C(C(C)C)N(C)C(=O)C3(F)CCN(C(=O)C#CC(C)(C)N(C)C)CC3)C(=O)N3CCCC(N3)C(=O)OCC(C)(C)C2)C1
viability, T/C (second compound 0.000949 µM, first compound 0.000949 µM): 97.8%
viability, T/C (second compound 0.000949 µM, first compound 0.003 µM): 34.1%
viability, T/C (second compound 0.000949 µM, first compound 0.00949 µM): 12.3%
viability, T/C (second compound 0.000949 µM, first compound 0.03 µM): 5.82%
viability, T/C (second compound 0.000949 µM, first compound 0.0949 µM): 6.17%
viability, T/C (second compound 0.000949 µM, first compound 0.3 µM): 6.87%
viability, T/C (second compound 0.003 µM, first compound 0.000949 µM): 92.6%
viability, T/C (second compound 0.003 µM, first compound 0.003 µM): 39.6%
viability, T/C (second compound 0.003 µM, first compound 0.00949 µM): 16.9%
viability, T/C (second compound 0.003 µM, first compound 0.03 µM): 5.84%
viability, T/C (second compound 0.003 µM, first compound 0.0949 µM): 4.8%
viability, T/C (second compound 0.003 µM, first compound 0.3 µM): 7.45%
viability, T/C (second compound 0.00949 µM, first compound 0.000949 µM): 104%
viability, T/C (second compound 0.00949 µM, first compound 0.003 µM): 40.5%
viability, T/C (second compound 0.00949 µM, first compound 0.00949 µM): 14.4%
viability, T/C (second compound 0.00949 µM, first compound 0.03 µM): 8.96%
viability, T/C (second compound 0.00949 µM, first compound 0.0949 µM): 6.33%
viability, T/C (second compound 0.00949 µM, first compound 0.3 µM): 7.48%
viability, T/C (second compound 0.03 µM, first compound 0.000949 µM): 72.7%
viability, T/C (second compound 0.03 µM, first compound 0.003 µM): 46.1%
viability, T/C (second compound 0.03 µM, first compound 0.00949 µM): 11.3%
viability, T/C (second compound 0.03 µM, first compound 0.03 µM): 10%
viability, T/C (second compound 0.03 µM, first compound 0.0949 µM): 5.57%
viability, T/C (second compound 0.03 µM, first compound 0.3 µM): 7.99%
viability, T/C (second compound 0.0949 µM, first compound 0.000949 µM): 101%
viability, T/C (second compound 0.0949 µM, first compound 0.003 µM): 43.5%
viability, T/C (second compound 0.0949 µM, first compound 0.00949 µM): 12.7%
viability, T/C (second compound 0.0949 µM, first compound 0.03 µM): 4.87%
viability, T/C (second compound 0.0949 µM, first compound 0.0949 µM): 7.25%
viability, T/C (second compound 0.0949 µM, first compound 0.3 µM): 6.81%
viability, T/C (second compound 0.3 µM, first compound 0.000949 µM): 66%
viability, T/C (second compound 0.3 µM, first compound 0.003 µM): 34.3%
viability, T/C (second compound 0.3 µM, first compound 0.00949 µM): 10%
viability, T/C (second compound 0.3 µM, first compound 0.03 µM): 5.73%
viability, T/C (second compound 0.3 µM, first compound 0.0949 µM): 6.03%
viability, T/C (second compound 0.3 µM, first compound 0.3 µM): 4.48%

IC50 (second compound 0.000949 µM): < 31.6 nM
IC50 (second compound 0.003 µM): 31.6 nM
IC50 (second compound 0.00949 µM): < 31.6 nM
IC50 (second compound 0.03 µM): < 31.6 nM
IC50 (second compound 0.0949 µM): < 31.6 nM
IC50 (second compound 0.3 µM): < 31.6 nM
SMILES: CCC(CC)c1cc(NC2CCC(N)C2)n2nccc2n1 (centres undefined) + CCn1c(-c2cc(N3CCN(C)CC3)cnc2C(C)OC)c2c3cc(ccc31)-c1csc(n1)CC(NC(=O)C1CC1C)C(=O)N1CCCC(N1)C(=O)OCC(C)(C)C2
viability, T/C (second compound 0.000949 µM, first compound 0.0316 µM): 39%
viability, T/C (second compound 0.000949 µM, first compound 0.1 µM): 50.8%
viability, T/C (second compound 0.000949 µM, first compound 0.316 µM): 56%
viability, T/C (second compound 0.000949 µM, first compound 1 µM): 48.2%
viability, T/C (second compound 0.000949 µM, first compound 3.16 µM): 11.8%
viability, T/C (second compound 0.000949 µM, first compound 10 µM): 10.7%
viability, T/C (second compound 0.003 µM, first compound 0.0316 µM): 47.5%
viability, T/C (second compound 0.003 µM, first compound 0.1 µM): 44.3%
viability, T/C (second compound 0.003 µM, first compound 0.316 µM): 50.6%
viability, T/C (second compound 0.003 µM, first compound 1 µM): 43%
viability, T/C (second compound 0.003 µM, first compound 3.16 µM): 6.49%
viability, T/C (second compound 0.003 µM, first compound 10 µM): 10.2%
viability, T/C (second compound 0.00949 µM, first compound 0.0316 µM): 34.5%
viability, T/C (second compound 0.00949 µM, first compound 0.1 µM): 32.3%
viability, T/C (second compound 0.00949 µM, first compound 0.316 µM): 43.7%
viability, T/C (second compound 0.00949 µM, first compound 1 µM): 44.4%
viability, T/C (second compound 0.00949 µM, first compound 3.16 µM): 9.61%
viability, T/C (second compound 0.00949 µM, first compound 10 µM): 8.45%
viability, T/C (second compound 0.03 µM, first compound 0.0316 µM): 23.9%
viability, T/C (second compound 0.03 µM, first compound 0.1 µM): 23.9%
viability, T/C (second compound 0.03 µM, first compound 0.316 µM): 24.4%
viability, T/C (second compound 0.03 µM, first compound 1 µM): 21.2%
viability, T/C (second compound 0.03 µM, first compound 3.16 µM): 7.51%
viability, T/C (second compound 0.03 µM, first compound 10 µM): 7.75%
viability, T/C (second compound 0.0949 µM, first compound 0.0316 µM): 12.3%
viability, T/C (second compound 0.0949 µM, first compound 0.1 µM): 11.3%
viability, T/C (second compound 0.0949 µM, first compound 0.316 µM): 17.4%
viability, T/C (second compound 0.0949 µM, first compound 1 µM): 12.1%
viability, T/C (second compound 0.0949 µM, first compound 3.16 µM): 9.07%
viability, T/C (second compound 0.0949 µM, first compound 10 µM): 8.98%
viability, T/C (second compound 0.3 µM, first compound 0.0316 µM): 10.9%
viability, T/C (second compound 0.3 µM, first compound 0.1 µM): 10.8%
viability, T/C (second compound 0.3 µM, first compound 0.316 µM): 11.7%
viability, T/C (second compound 0.3 µM, first compound 1 µM): 12.6%
viability, T/C (second compound 0.3 µM, first compound 3.16 µM): 10.9%
viability, T/C (second compound 0.3 µM, first compound 10 µM): 8.49%
